Test results as given in PMC5513037, “Examining the influence of specificity ligands and ATP-competitive ligands on the overall effectiveness of bivalent kinase inhibitors” (Proteome Science, 2017).

Columns and labels:
Test in all cases: KAM-matrix competition in K562 lysate;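 for 0.001 uM KAM: median log10 fold change of treatment over DMSO control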;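 for 0.01 uM KAM: median log10 fold change of treatment over DMSO control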;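 for 0.1 uM KAM: median log10 fold change of treatment over DMSO control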;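 for 1 uM KAM: median log10 fold change of treatment over DMSO control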;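 for 10 uM KAM: median log10 fold change of treatment over DMSO control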
Format in all cases: binding
ACVR2B = target: T1, ACVR2B (Homo sapiens, UniProt Q13705);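 for 0.001 uM KAM: median log10 fold change of treatment over DMSO control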;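 for 0.01 uM KAM: median log10 fold change of treatment over DMSO control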;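 for 0.1 uM KAM: median log10 fold change of treatment over DMSO control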;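 for 1 uM KAM: median log10 fold change of treatment over DMSO control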;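 for 10 uM KAM: median log10 fold change of treatment over DMSO control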
T1 construct: endogenous in cells; host or cells: K562 cell lysate
T1 sequence (Q13705 19-512): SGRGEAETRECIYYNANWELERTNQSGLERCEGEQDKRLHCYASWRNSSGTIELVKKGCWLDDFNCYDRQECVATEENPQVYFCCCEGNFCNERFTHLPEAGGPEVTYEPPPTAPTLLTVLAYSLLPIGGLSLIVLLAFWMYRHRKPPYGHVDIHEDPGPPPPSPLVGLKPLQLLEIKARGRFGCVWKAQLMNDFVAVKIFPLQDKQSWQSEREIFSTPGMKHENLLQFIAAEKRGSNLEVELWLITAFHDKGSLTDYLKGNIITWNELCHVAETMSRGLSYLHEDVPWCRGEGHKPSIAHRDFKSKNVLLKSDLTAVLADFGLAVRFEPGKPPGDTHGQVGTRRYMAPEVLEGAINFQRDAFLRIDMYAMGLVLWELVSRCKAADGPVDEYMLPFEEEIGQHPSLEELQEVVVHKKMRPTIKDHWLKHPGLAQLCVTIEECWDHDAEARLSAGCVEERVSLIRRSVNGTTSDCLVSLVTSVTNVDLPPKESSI
Experimental: (§1) Supplement 12953_2017_125_MOESM1_ESM.zip/MS_Supp Info.xlsx, sheet "KAM" | column: 10 uM KAM; 1 uM KAM; 0.1 uM KAM; 0.01 uM KAM; 0.001 uM KAM; RB50

EPHA2 = target: T2, EPHA2 (Homo sapiens, UniProt P29317);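 for 0.001 uM KAM: median log10 fold change of treatment over DMSO control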;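 for 0.01 uM KAM: median log10 fold change of treatment over DMSO control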;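 for 0.1 uM KAM: median log10 fold change of treatment over DMSO control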;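 for 1 uM KAM: median log10 fold change of treatment over DMSO control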;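 for 10 uM KAM: median log10 fold change of treatment over DMSO control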
T2 construct: endogenous in cells; host or cells: K562
T2 sequence (P29317 24-976): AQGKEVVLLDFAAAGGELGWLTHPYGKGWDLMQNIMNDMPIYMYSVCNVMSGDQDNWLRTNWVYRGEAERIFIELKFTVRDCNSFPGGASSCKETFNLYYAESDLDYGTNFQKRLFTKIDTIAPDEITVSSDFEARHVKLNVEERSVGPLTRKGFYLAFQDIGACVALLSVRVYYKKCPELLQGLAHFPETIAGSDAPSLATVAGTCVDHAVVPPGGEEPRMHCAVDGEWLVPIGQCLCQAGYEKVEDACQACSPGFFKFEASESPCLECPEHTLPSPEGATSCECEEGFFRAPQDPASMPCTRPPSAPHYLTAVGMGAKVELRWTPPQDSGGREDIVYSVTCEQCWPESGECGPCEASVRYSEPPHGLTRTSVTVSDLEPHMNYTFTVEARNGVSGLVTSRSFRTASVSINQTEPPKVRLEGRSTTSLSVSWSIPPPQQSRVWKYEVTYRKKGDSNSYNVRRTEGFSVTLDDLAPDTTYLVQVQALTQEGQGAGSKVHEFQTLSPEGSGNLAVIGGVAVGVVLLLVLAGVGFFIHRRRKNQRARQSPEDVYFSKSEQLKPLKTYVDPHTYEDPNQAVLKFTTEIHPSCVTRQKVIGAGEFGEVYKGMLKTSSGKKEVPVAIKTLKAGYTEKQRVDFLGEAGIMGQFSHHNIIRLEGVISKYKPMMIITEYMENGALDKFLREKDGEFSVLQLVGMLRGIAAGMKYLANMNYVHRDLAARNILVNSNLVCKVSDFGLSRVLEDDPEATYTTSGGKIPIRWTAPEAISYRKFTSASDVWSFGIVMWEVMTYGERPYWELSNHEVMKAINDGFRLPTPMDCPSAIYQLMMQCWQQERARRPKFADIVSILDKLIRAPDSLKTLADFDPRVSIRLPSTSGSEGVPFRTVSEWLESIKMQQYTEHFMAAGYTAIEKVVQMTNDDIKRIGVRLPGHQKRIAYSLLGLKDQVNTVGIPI
Experimental: as §1

TLK1 = target: T3, TLK1 (Homo sapiens, UniProt Q9UKI8);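 for 0.001 uM KAM: median log10 fold change of treatment over DMSO control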;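 for 0.01 uM KAM: median log10 fold change of treatment over DMSO control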;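 for 0.1 uM KAM: median log10 fold change of treatment over DMSO control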;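 for 1 uM KAM: median log10 fold change of treatment over DMSO control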;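 for 10 uM KAM: median log10 fold change of treatment over DMSO control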
T3 construct: endogenous in cells; host or cells: K562 cells (combined S0.8 and P0.8 lysate)
T3 sequence (Q9UKI8 1-766): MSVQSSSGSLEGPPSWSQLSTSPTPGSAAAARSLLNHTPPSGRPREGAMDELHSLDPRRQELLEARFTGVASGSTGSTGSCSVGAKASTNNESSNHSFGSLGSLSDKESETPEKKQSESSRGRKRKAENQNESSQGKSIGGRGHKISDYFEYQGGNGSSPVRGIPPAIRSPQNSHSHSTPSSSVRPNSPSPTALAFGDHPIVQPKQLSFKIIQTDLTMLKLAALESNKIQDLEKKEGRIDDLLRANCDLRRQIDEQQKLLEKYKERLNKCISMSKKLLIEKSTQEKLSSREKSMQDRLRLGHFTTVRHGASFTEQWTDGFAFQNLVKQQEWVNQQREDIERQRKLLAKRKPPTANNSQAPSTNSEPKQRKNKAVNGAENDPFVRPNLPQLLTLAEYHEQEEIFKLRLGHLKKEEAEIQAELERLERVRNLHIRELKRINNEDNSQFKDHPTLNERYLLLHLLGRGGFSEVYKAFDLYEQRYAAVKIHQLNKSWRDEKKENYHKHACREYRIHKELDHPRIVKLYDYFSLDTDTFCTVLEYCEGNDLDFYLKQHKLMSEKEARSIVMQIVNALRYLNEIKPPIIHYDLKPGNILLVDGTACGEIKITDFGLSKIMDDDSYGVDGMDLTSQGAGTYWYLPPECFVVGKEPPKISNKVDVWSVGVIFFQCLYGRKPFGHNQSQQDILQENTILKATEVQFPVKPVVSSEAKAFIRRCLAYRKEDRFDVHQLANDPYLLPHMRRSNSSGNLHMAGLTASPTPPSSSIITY
Experimental: as §1

ACVR1 = target: T4, ACVR1 (Homo sapiens, UniProt Q04771)
T4 construct: endogenous in cells; host or cells: K562
T4 sequence (Q04771 21-509): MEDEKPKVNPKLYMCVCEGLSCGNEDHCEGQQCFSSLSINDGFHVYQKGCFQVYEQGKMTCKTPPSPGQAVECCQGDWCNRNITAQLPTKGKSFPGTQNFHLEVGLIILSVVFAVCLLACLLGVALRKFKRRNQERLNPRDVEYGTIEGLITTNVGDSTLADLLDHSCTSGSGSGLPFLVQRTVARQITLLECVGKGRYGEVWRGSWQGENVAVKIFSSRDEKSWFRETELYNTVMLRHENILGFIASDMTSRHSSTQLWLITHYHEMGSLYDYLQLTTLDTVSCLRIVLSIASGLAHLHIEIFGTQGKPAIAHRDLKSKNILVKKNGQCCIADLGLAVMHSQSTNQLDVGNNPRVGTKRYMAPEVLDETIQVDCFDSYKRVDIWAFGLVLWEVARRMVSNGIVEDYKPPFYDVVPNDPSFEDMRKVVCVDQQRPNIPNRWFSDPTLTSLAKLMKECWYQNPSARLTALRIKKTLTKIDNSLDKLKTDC
Experimental: as §1

RPS6KA5 = target: T5, RPS6KA5 (Homo sapiens, UniProt O75582)
T5 construct: endogenous in cells; host or cells: K562
T5 sequence (O75582 whole entry): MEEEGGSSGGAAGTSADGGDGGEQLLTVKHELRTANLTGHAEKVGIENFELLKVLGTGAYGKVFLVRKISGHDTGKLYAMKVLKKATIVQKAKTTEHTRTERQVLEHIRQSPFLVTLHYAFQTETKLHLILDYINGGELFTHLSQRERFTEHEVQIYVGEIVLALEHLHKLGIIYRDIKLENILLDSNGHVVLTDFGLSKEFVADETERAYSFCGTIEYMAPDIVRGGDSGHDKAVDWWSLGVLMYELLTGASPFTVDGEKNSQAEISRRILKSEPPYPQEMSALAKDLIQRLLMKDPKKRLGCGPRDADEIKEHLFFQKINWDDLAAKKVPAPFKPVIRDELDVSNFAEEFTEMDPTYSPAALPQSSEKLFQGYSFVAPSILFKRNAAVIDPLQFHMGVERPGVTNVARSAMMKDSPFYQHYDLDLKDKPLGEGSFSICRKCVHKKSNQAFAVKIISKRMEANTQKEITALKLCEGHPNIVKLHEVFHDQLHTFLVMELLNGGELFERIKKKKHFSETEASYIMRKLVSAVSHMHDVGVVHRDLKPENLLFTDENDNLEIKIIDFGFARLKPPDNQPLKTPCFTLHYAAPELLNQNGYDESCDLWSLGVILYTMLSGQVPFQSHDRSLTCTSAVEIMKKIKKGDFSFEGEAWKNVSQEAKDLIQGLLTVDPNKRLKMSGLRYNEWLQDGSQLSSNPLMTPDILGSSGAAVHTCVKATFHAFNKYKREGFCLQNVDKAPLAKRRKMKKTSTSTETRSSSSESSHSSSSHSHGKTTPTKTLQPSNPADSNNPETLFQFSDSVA
Experimental: as §1

IRAK4 = target: T6, IRAK4 (Homo sapiens, UniProt Q9NWZ3)
T6 construct: endogenous in cells; host or cells: K562
T6 sequence (Q9NWZ3 1-460): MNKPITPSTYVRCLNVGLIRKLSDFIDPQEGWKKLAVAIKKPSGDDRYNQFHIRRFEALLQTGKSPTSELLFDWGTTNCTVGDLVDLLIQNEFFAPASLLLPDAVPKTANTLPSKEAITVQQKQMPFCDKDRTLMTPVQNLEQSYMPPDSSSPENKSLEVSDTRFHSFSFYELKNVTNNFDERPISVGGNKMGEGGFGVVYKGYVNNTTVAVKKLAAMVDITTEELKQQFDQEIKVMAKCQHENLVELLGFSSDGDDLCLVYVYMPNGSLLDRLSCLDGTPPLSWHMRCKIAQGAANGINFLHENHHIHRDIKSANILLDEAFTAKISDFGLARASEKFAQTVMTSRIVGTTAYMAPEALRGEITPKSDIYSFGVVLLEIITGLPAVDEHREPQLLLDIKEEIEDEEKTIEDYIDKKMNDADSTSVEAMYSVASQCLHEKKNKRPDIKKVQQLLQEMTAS
Experimental: as §1

NME3 = target: T7, NME3 (Homo sapiens, UniProt Q13232);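 for 0.001 uM KAM: median log10 fold change of treatment over DMSO control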;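 for 0.01 uM KAM: median log10 fold change of treatment over DMSO control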;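 for 0.1 uM KAM: median log10 fold change of treatment over DMSO control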;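 for 1 uM KAM: median log10 fold change of treatment over DMSO control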;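 for 10 uM KAM: median log10 fold change of treatment over DMSO control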
T7 construct: endogenous in cells; host or cells: K562
T7 sequence (Q13232 1-169): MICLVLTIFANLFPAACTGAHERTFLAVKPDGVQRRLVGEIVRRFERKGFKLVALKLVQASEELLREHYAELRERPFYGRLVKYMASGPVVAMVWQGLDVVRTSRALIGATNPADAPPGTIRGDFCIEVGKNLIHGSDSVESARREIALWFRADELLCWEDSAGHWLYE
Experimental: as §1

[1] = KAM 0.001-10 uM, read-out: RB50 (the source's name)
[2] = read-out: RB50 (the source's name)

## N#CCc1ccc(Nc2nc(NCCCN)cc(Nc3cc(C4CC4)[nH]n3)n2)cc1 [KAM]
ACVR2B; [1]
  IC50: > 10 µM
ACVR2B; relative to 0 uM KAM = 0
  0.001 uM KAM: 0.02766
  0.01 uM KAM: -0.009918
  0.1 uM KAM: -0.09138
  1 uM KAM: -0.2794
  10 uM KAM: -0.2958
EPHA2; [1]
  IC50: > 10 µM
EPHA2; relative to 0 uM KAM = 0
  0.001 uM KAM: -0.04778
  0.01 uM KAM: 0.0608
  0.1 uM KAM: 0.1233
  1 uM KAM: 0.3139
  10 uM KAM: 0.0956
TLK1; [1]
  IC50: > 10 µM
TLK1; relative to 0 uM KAM = 0
  0.001 uM KAM: -0.0133
  0.01 uM KAM: 0.001518
  0.1 uM KAM: -0.1562
  1 uM KAM: -0.3373
  10 uM KAM: -0.1561
ACVR1; 0.001 uM KAM
  median Log10 fold change: 0.003413
ACVR1; 0.01 uM KAM
  median Log10 fold change: -0.1656
ACVR1; 0.1 uM KAM
  median Log10 fold change: -0.6449
ACVR1; 1 uM KAM
  median Log10 fold change: -0.6498
ACVR1; 10 uM KAM
  median Log10 fold change: -0.7414
ACVR1; [2]
  IC50: 0.027 µM
RPS6KA5; 0.001 uM KAM
  median Log10 fold change: 0.02456
RPS6KA5; 0.01 uM KAM
  median Log10 fold change: -0.007608
RPS6KA5; 0.1 uM KAM
  median Log10 fold change: -0.1303
RPS6KA5; 1 uM KAM
  median Log10 fold change: -0.3238
RPS6KA5; 10 uM KAM
  median Log10 fold change: -0.3743
RPS6KA5; [2]
  IC50: 1.19 µM
IRAK4; 0.001 uM KAM
  median Log10 fold change: -0.01083
IRAK4; 0.01 uM KAM
  median Log10 fold change: -0.003774
IRAK4; 0.1 uM KAM
  median Log10 fold change: -0.1174
IRAK4; 1 uM KAM
  median Log10 fold change: -0.3495
IRAK4; 10 uM KAM
  median Log10 fold change: -0.4574
IRAK4; [2]
  IC50: 0.922 µM
NME3; [1]
  IC50: > 10 µM
NME3; relative to 0 uM KAM = 0
  0.001 uM KAM: -0.01588
  0.01 uM KAM: -0.01222
  0.1 uM KAM: -0.05319
  1 uM KAM: 0.05076
  10 uM KAM: 0.01706
